Measured values as given in US20100240642A1, “1H-Indole-2-Carboxylic Acid Derivatives Useful As PPAR Modulators” (SMITHKLINE BEECHAM CORPORATION, priority 2006, published 2010).

What was measured:
[1] = system: Male Zucker Diabetic Fatty rats; test: In vivo evaluation: serum glucose in Zucker Diabetic Fatty rats; parameters: species or system rat; conditions: 10 mg/kg once daily by oral gavage, 28 days, percent reduction from vehicle control at day 28 relative to normalization (140 mg/dL)
Procedure: Male Zucker Diabetic Fatty rats were lightly anesthetized with isofluorane gas and bleed by tail vein to obtain postprandial baseline concentrations for serum glucose, serum lipids and insulin. Animals were baseline matched by serum glucose and randomized into vehicle or treatment groups with compound administration by oral gavage beginning at 6.5 weeks of age. Selected compounds were administered once daily at 10 mg/kg in 25 mM N-Methyl-Glucamine with 5% w/v Solutol HS15. After 28 consecutive days of treatment, blood samples were obtained and analyzed for serum glucose. Values in Table 1 for % Glucose reduction represent a summary of the percent reduction from vehicle control animals at day 28 relative to normalization defined in this model as serum glucose levels of 140 mg/dL.

[2] = target: T1, hPPARγ receptor (Homo sapiens, UniProt P37231); test: PPARγ Cell-based luciferase assay; conditions: CV-1 cells transfected with GAL4-hPPARγ LBD and UAStkLuc; at concentrations of 10^−6 M or less; read-out: agonism of the hPPARγ receptor (activation relative to full agonist rosiglitazone)
T1 construct: expressed in transfected cells; host or cells: CV-1 (African Green Monkey kidney, ATCC CCL-70)
T1 sequence (P37231 172-475 isoform P37231-2): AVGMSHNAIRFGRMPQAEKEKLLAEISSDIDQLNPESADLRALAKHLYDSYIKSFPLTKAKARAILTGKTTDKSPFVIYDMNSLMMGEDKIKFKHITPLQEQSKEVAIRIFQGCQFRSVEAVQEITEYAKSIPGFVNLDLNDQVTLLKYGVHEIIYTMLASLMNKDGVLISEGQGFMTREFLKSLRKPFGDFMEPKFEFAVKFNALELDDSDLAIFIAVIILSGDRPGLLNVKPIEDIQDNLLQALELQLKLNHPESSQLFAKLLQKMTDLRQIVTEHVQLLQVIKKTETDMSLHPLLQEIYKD
Method in brief: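 CV-1 cells were transiently transfected with GAL4-DBD/human PPARγ LBD (172-475) and a UAS-tk-firefly luciferase reporter. Cells were plated at 10,000/well in 5% charcoal-stripped FBS medium onto 11-point, 3-fold compound dilutions and incubated overnight at 37 °C. Luminescence was read after Steady-Glo lysis, with activation scored relative to rosiglitazone as full agonist.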

| Emax [2] | Compound | % Glucose Reduction [1] |
| --- | --- | --- |
| 20 to 80% | COCCOc1cc(Cn2c(C(=O)O)c(-c3ccc(C(C)(C)C)cc3)c3ccccc32)cc(OCC2CC2)c1 [Example 2, 1-[(3-[(cyclopropylmethyl)oxy]-5-{[2-(methyloxy)ethyl]oxy}phenyl)methyl]-3-[4-(1,1-dimethylethyl)phenyl]-1H-indole-2-carboxylic acid] | 96% |
| 20 to 80% | Cc1ccc(-c2ccc(C(=O)O)cc2)cc1Cn1c(C(=O)O)c(-c2ccc(C(C)(C)C)cc2)c2ccccc21 [Example 11, 1-[(4′-carboxy-4-methyl-3-biphenylyl)methyl]-3-[4-(1,1-dimethylethyl)phenyl]-1H-indole-2-carboxylic acid] | 49% |
| 20 to 80% | COc1cc(Cn2c(C(=O)O)c(-c3ccc(C(C)(C)C)cc3)c3ccccc32)cc(-c2ccc(C(=O)O)cc2)c1 [Example 18, 1-{[4′-carboxy-5-(methyloxy)-3-biphenylyl]methyl}-3-[4-(1,1-dimethylethyl)phenyl]-1H-indole-2-carboxylic acid] | 44% |
| 20 to 80% | CC(C)(C)c1ccc(-c2c(C(=O)O)n(Cc3cc(OCCN4CCOCC4)cc(OCC4CC4)c3)c3ccccc23)cc1 [Example 42, 1-[(3-[(cyclopropylmethyl)oxy]-5-{[2-(4-morpholinyl)ethyl]oxy}phenyl)methyl]-3-[4-(1,1-dimethylethyl)phenyl]-1H-indole-2-carboxylic acid] | 82% |
| 20 to 80% | COCCOc1cc(Cn2c(C(=O)O)c(-c3ccc(C(C)(C)C)cc3)c3ccccc32)cc(N2CCOCC2)c1 [Example 68, 3-[4-(1,1-dimethylethyl)phenyl]-1-{[3-{[2-(methyloxy)ethyl]oxy}-5-(4-morpholinyl)phenyl]methyl}-1H-indole-2-carboxylic acid] | 95% |
| 20 to 80% | CC(C)(C)c1ccc(-c2c(C(=O)O)n(Cc3cc(O)cc(OCC4CC4)c3)c3ccccc23)cc1 [Example 3, 1-({3-[(cyclopropylmethyl)oxy]-5-hydroxyphenyl}methyl)-3-[4-(1,1-dimethylethyl)phenyl]-1H-indole-2-carboxylic acid] | – |
| 20 to 80% | CC(C)(C)c1ccc(-c2c(C(=O)O)n(Cc3cccc(-c4ccc(S(C)(=O)=O)cc4)c3)c3ccccc23)cc1 [Example 24, 3-[4-(1,1-dimethylethyl)phenyl]-1-{[4′-(methylsulfonyl)-3-biphenylyl]methyl}-1H-indole-2-carboxylic acid] | 79% |
| 20 to 80% | CC(C)OC(=O)N1CCN(c2cccc(Cn3c(C(=O)O)c(-c4ccc(C(C)(C)C)cc4)c4ccccc43)c2)CC1 [Example 47, 3-[4-(1,1-dimethylethyl)phenyl]-1-{[3-(4-{[(1-methylethyl)oxy]carbonyl}-1-piperazinyl)phenyl]methyl}-1H-indole-2-carboxylic acid] | – |
| 20 to 80% | Cc1ccc(-c2ccc(C(=O)NCc3cccs3)cc2)cc1Cn1c(C(=O)O)c(-c2ccc(C(C)(C)C)cc2)c2ccccc21 [Example 32, 3-[4-(1,1-dimethylethyl)phenyl]-1-[(4-methyl-4′-{[(2-thienylmethyl)amino]carbonyl}-3-biphenylyl)methyl]-1H-indole-2-carboxylic acid] | – |
| 20 to 80% | CC(C)(C)c1ccc(-c2c(C(=O)O)n(Cc3cc(OCC4CC4)cc(OCC4CC4)c3)c3ccccc23)cc1 [Example 5, 1-({3,5-bis[(cyclopropylmethyl)oxy]phenyl}methyl)-3-[4-(1,1-dimethylethyl)phenyl]-1H-indole-2-carboxylic acid] | – |
| 20 to 80% | CC(C)(C)c1ccc(-c2c(C(=O)O)n(Cc3cc(O)cc(-c4ccc(C(=O)O)cc4)c3)c3ccccc23)cc1 [Example 22, 1-[(4′-carboxy-5-hydroxy-3-biphenylyl)methyl]-3-[4-(1,1-dimethylethyl)phenyl]-1H-indole-2-carboxylic acid] | – |
